Measured values as given in EP2147913A1, “Styrylquinolines, their process of preparation and their therapeutic uses” (BioAlliance Pharma, priority 2008, dated 2010).
Read-outs that look alike come from different tables or passages of the source.

Legend:
[1] = tested on: wild type HIV-1 virus (NL 4.3 strains); experiment: Antiviral activity assay on Hela P4 cells; format: cell-based; conditions: Human immunodeficiency virus 1, HeLaP4, 48 h, read-out: P4 IC50 (µM)
Experimental: The antiviral activity is determined by infecting HelaP4 cells with a wild type HIV-1 virus (NL 4.3 strains at 3 ng) on cells in presence or absence of drugs.
A serial dilution of drugs is done to evaluate the EC50. The effective concentration is the concentration of product at which virus replication is inhibited by 50 percent.
After 48 hours incubation, the quantification is done by the evaluation of β-Galactosidase produced by the infected Hela P4 cells. The viral activity is evaluated by colorimetric assay, CPRG, followed by plate reading at 570 nm with a reference of 690 nm. The CPRG test is a colorimetric assay which allows to quantity the β-galactosidase produced by HIV-1 infected indicator cells (the β-Gal gene being under the control of the HIV-1 LTR).

HBX2 HIV integrase [2] = molecular target: T1, HBX2 HIV integrase (Human immunodeficiency virus type 1 group M subtype B, UniProt P04585); experiment: Strand Transfer Assay; format: biochemical
T1 construct: The pET-15b-IN plasmid contains the cDNA encoding the HBX2 HIV integrase; His tag (N, cleaved yes); made in house; host or cells: Escherichia coli BL21 (DE3)
Experimental: (§1) The pET-15b-IN plasmid contains the cDNA encoding the HBX2 HIV integrase. His-tagged integrase protein was overexpressed in Escherichia coli BL21 (DE3) and purified under native conditions. Briefly, at an OD of 0.8, fusion protein expression was induced in bacterial cultures by the addition of IPTG (1 mM). Cultures were incubated for 3 h at […], after which cells were centrifuged. The cell pellet was resuspended in ice-cold buffer A [20 mM Tris-HCl (pH 8), 1 M NaCl, 4 mM β-mercaptoethanol, and 5 mM imidazole], treated with lysozyme for 1 h on ice, and sonicated. After centrifugation (30 min at 10 000 rpm), the supernatant was filtered (0.45 µm) and incubated for at least 2 h with Ni-NTA agarose beads (Pharmacia). The beads were washed twice with 10 volumes of buffer A, 10 volumes of buffer A with 50 mM imidazole, and 10 volumes of buffer A with 100 mM imidazole. His-tagged integrase was then eluted with buffer A supplemented with 50 µM ZnSO4 and 1 M imidazole. The integrase concentration was adjusted to 0.1 mg/mL in buffer A. The fusion protein was cleaved using thrombin and dialyzed overnight against 20 mM Tris-HCl (pH 8), 1 M NaCl, and 4 mM β-mercaptoethanol. After removal of biotinylated thrombin by incubation with streptavidin-agarose magnetic beads (Novagen, Madison, WI), a second dialysis was performed for 2 h against 20 mM Tris-HCl (pH 8), 1 M NaCl, 4 mM β-mercaptoethanol, and 20% (v/v) ethylene glycol. Fractions were aliquoted and rapidly frozen at -80°C.
(§2) Oligonucleotides U5B (5'-[…]-3'), U5B-2 (5'-GTGTGGAAAATCTCTAGCA-3'), U5A (5'-[…]-3') were purchased from Eurogentec (Liege, Belgium) and further purified on an 18% denaturing acrylamide/urea gel. For processing, strand transfer, 100 pmol of U5B, U5B-2, respectively, were radiolabeled using T4 polynucleotide kinase and 50 µCi of [γ-32P]ATP (3000 Ci/mmol). […]
Processing, strand transfer reactions were performed using U5A-U5B-2, in buffer containing 20 mM Tris (pH 7.2), 50 mM NaCl, 10 mM DTT, 10mM MgCl2. […] Gels were analyzed using a STORM Molecular Dynamics phosphorimager and quantified with Image Quant™ 4.1 software.

[3] = Viability assay (MTT cytotoxicity); format: cell-based; conditions: human; for CC50 at 48 h: hela-p4 cells, 2 days
Experimental: The cytotoxicity of compounds was evaluated using un-infected and infected HeLa-P4 cell and CEM leukemia cells. CEM cell were obtained from the American Type Tissue Collection (Rockville, MD).
A serial dilution of drugs is done to evaluate the cytotoxicity concentration and is identified by CC50 (concentration of drug which induces 50% of cytotoxicity)
The HeLa-P4 was cultured in the presence or absence of compounds for 2 days. After this time period, cells were cultivated with MTT for 3 hours, further the medium is removed. And the lysis buffer is incubated for 1 hour, followed by plate reading at 540 nm in a microplate reader.

[4] = tested on: wild type HIV-1 virus (NL 4.3 strains); experiment: Antiviral activity assay CEM cells; format: cell-based; conditions: Human immunodeficiency virus 1, CCRF-CEM
Experimental: The activity is determined by infecting CEM cells with a wild type HIV-1 virus (NL 4.3 strains at 3ng) on cells in presence or absence of drugs.
A serial dilution of drugs is done to evaluate the EC50.
The effective concentration is the concentration of product at which virus replication is inhibited by 50 percent.
After 48 hours incubation, the quantification is done by the evaluation of the viral protein p24 with a commercial Elisa Kit. P24 is a protein essential to the replication virus cycle. The quantification of this enzyme is proportional to the amount of virus produced by the infected cells.

HBX2 HIV integrase [5] = molecular target: T1, HBX2 HIV integrase; experiment: 3' LTR Processing Assay; format: biochemical
Experimental: as §1, §2
Processing reaction was performed using U5A-U5B, in buffer containing 20 mM Tris (pH 7.2), 50 mM NaCl, 10 mM DTT, and 10mM MgCl2. […] Gels were analyzed using a STORM Molecular Dynamics phosphorimager and quantified with Image Quant™ 4.1 software.

[6] = U5A-U5B-2 substrate DNA 12.5 nM, IN 200nM, 10mM MgCl2, up to 2 h at 37°C, read-out: Transfert IC50
[7] = U5A-U5B substrate DNA 12.5 nM, IN 200 nM, 10mM MgCl2, up to 2 h at 37°C, read-out: Processing IC50

| Structure (SMILES) | IC50 [1] | IC50 (HBX2 HIV integrase [2]) | IC50 at 2 days ([3]; HeLa-P4 cells) | EC50 ([4]; CEM cells, NL 4.3, 48 hours, p24 Elisa, read-out: CEM) | IC50 (HBX2 HIV integrase [5]) | IC50 (HBX2 HIV integrase [2]; [6]) | CC50 at 48 h ([3]; read-out: Cytotoxicity IC50) | EC50 ([4]; 48 h, read-out: CEM (µM)) | IC50 (HBX2 HIV integrase [5]; [7]) | CC50 at 48 h ([3]; comparative example, read-out: Cytoto-IC50 IC50) |
| --- | --- | --- | --- | --- | --- | --- | --- | --- | --- | --- |
| O=C(O)c1ccc2ccc(/C=C/c3cc(O)c(O)c(Cl)c3)nc2c1O [SQE41, (E)-2-(3-chloro-4,5-dihydroxystyryl)-8-hydroxyquinoline-7-carboxylic acid] | 5 µM | 280 nM | 22500 nM | 36 µM | 280 nM |  |  |  |  |  |
| O=C(O)c1ccc2ccc(/C=C/c3cc(O)c(O)c([N+](=O)[O-])c3)nc2c1O [SQE67] | 6.2 µM |  |  |  |  | 180 nM | 35000 nM | 42 µM | 150 nM |  |
| COc1cc(/C=C/c2ccc3ccc(C(=O)O)c(O)c3n2)cc(O)c1O [FZ41, reference compound] |  |  |  |  |  |  |  |  |  | > 100000 nM |
| COc1cc(/C=C/c2ccc3ccc(Br)c(O)c3n2)cc(O)c1O [SQE63] | 0.82 µM |  |  |  |  | 950 nM | 11700 nM | 2.8 µM | 950 nM |  |
